In a melting point compilation (Tetko et al.; mined from patent text by program, amines drawn as free bases though some values may be those of a salt):

melting point	Compound
158 to 159 °C	CCOc1cn(C)cc(-c2ccc(Cl)c(C(F)(F)F)c2)c1=O
163 to 164 °C	Cc1ccc2c(Sc3cc(Cl)cc(Cl)c3)c(CCCC(N)=O)[nH]c2c1
225 to 227 °C	O=C(O)COc1cccc2c1CCC(n1nc(-c3c(-c4ccccc4)nn4ccccc34)ccc1=O)C2=O (stereo not drawn)
158 to 160 °C	Cc1ccc(Cl)c(Nc2ccccc2C(=O)NN)c1Cl
190 to 192 °C	Oc1cc(C(F)(F)F)nn1-c1ccccc1
186 to 187 °C	CC(C)(C)c1ccc(S(=O)(=O)Nc2nc(Cl)ncc2Oc2ccccc2Cl)cc1
110 to 115 °C	CC(C)OC(C)c1cc2c(=O)n(NS(C)(=O)=O)c(=O)[nH]c2cc1C(F)(F)F (stereo not drawn)
141 to 144 °C	CCc1nc2c(N)nc3ccccc3c2n1CCOCCNC(=O)Nc1ccccc1
140 to 142 °C	COc1cccc(OC)c1C(=O)N1CC2CCCN2c2ccccc21 (stereo not drawn)
154 to 155 °C	COC(=O)[C@H]1Cc2c([nH]c3ccccc23)[C@@H](c2ccc3c(c2)OCO3)N1
177 to 178 °C	Cn1c(C(F)(F)F)cc(=O)n(-c2ccc(Cl)c3c2OC(C)(C)C3=O)c1=O
171 to 172 °C	CCOC(=O)Cc1ccccc1N[C@@H](CCC(N)=O)C(=O)O
98 to 100 °C	Cc1oc2c(C)c(C)c(OCc3ccccc3)c(C)c2c1CN1CCC[C@H]1CO
57 to 58 °C	COc1cccc2c1OC(CO)CC2 (stereo not drawn)
167 to 169 °C	CC(C)(C)OC(=O)Cn1ccn(C2CCc3ccccc3C2)c1=S (stereo not drawn)
50 to 53 °C	COCc1ccc(CCCOc2c(C)cc(-c3noc(C(F)(F)F)n3)cc2C)cn1
186 to 188 °C	CC(C)n1nc(-c2c(-c3ccccc3)nc(Cl)c(N)c2Cl)ccc1=O
245 to 247 °C	O=C(O)C1CCN(c2cc(-c3ccc(Cl)cc3)nc3ccccc23)CC1
67 to 68 °C	O=C(O)CCCCCCCOc1ccccc1

melting point	Compound
201 to 202 °C	O=C1NC(C(Cl)(Cl)Cl)Nc2ccccc21 (stereo not drawn)
74 to 76 °C	OCCOc1ccc(Oc2ccc(F)cc2)cc1
194 to 198 °C	CCCc1nc2c(N)nc3cc(OCCCNC(=O)NS(=O)(=O)c4ccc(F)cc4)ccc3c2n1CC(C)C
133 to 135 °C	COc1cc(-n2cccn2)ccc1-n1cc(OC)c(=O)c(-c2ccnn2-c2ccccc2)n1
65 to 70 °C	Cc1ccc(N2CN(CCN(C)C)CN(C)C2=S)c(C)c1
102 to 103 °C	O=C1NC(=O)C(Cc2ccc(SCc3ccccc3)cc2)S1 (stereo not drawn)
52 to 53 °C	CCOC(=O)N(CCOc1ccc(Oc2ccc(F)cc2)cc1)C(=O)OCC
238 to 240 °C	O=c1c(Cl)c(Cl)cnn1-c1cc(-c2ccnc(Nc3cccc(Cl)c3)n2)ccn1
81 to 83 °C	Nc1sc2c(c1C(=O)c1ccc(Cl)s1)CCN(Cc1ccccc1)C2
199 to 200 °C	COc1ccc(Cn2c(S)nc3ccccc32)cc1
279 to 283 °C	O=C(CNc1c(C(=O)O)[nH]c2cc(Cl)cc(Cl)c12)c1ccc(Cl)cc1
116 to 118 °C	CCOC(=O)COc1ccc(S(=O)CCNS(=O)(=O)c2ccccc2)cc1 (stereo not drawn)
80 °C	COc1ccc2[nH]c(C(=O)Nc3ccc(CCCN(C)Cc4ccc(OC)c(OC)c4)cc3)cc2c1
82 to 84 °C	COc1ccc(O)c(CNc2ccccc2)c1
115 to 117 °C	CCOc1cc(C(CS(C)(=O)=O)N2Cc3cccc(NC(=O)C4CC4)c3C2=O)ccc1OC(F)F (stereo not drawn)
142 to 152 °C	Cc1cc(-c2cccc(NC(=O)N[C@@H]3c4cc(C#N)ccc4OC(C)(C)[C@H]3O)c2)n(C)n1
202 °C	FC(F)(F)c1ccc(-c2cc(C(F)(F)F)n3ncc(-c4ccccn4)c3n2)cc1
161 to 162 °C	COC(=O)c1ccc2occ(-c3cc(F)ccc3F)c2c1
165 °C	CP(C)(=O)CCCOC(=O)c1cccnc1Nc1cccc(C(F)(F)F)c1

melting point	Compound
120 to 122 °C	COc1ccc(COc2cc(N)c(Cl)cc2C(=O)CCCCN2CCCCC2)cc1OC
90 to 92 °C	CCOC(=O)CCCCC(=O)Oc1cccc(-c2cn3c(n2)sc2ccccc23)c1
100 °C	COC(=O)[C@@H]1[C@H](c2ccccc2)CC(=O)N1C
130 to 139 °C	COc1ccc(N2CCC(=O)N(c3ccc(F)cc3)CC2)c(-c2ccc(N(C)C)cc2)n1
193 °C	CCOC(=O)c1cc2cccc(N(C)C(=O)c3cccs3)c2[nH]1
97 to 100 °C	CCOc1ccccc1N(C(=O)C(N)=O)c1nc(N(CC)CC)nc(N(CC)CC)n1
259 °C	CCCn1c(=O)c2[nH]c(/C=C/c3cccc(Cl)c3)nc2n(CCC)c1=O
86 to 88 °C	O=S(=O)(NCC1CCN(C[C@H]2COc3ccc4[nH]ccc4c3O2)CC1)c1ccccn1
126 °C	COc1ccc2ccc(O)c(C=O)c2c1
234 to 236 °C	CCCOc1ccc(F)c2c(=O)c(-c3ccc(C(=O)N4CCOCC4)cc3)c[nH]c12
90 to 94 °C	CCOC(=O)c1ccc2c(c1)c(C#Cc1ccccc1)nn2CCC#N
141 to 142 °C	COc1ccc2cc([C@H](C)C(=O)Oc3ccc(OCCO[N+](=O)[O-])cc3)ccc2c1
87 to 88 °C	CCOC(=O)c1cc(CC)sc1Nc1cc(F)ccc1[N+](=O)[O-]
160 to 161 °C	CCCCCCCCCCS(=O)(=O)Nc1cc(C(=O)Nc2ccccc2)ccc1OC
126 to 127 °C	CCc1c(-c2cc(C)c(OC)c(C)c2)[nH]c2ccccc12
120 to 135 °C	CC(C)N1CC(Oc2ccc(-c3cccc(N)n3)c3ccccc23)C1
174 to 176 °C	CCOC(=O)c1ccc(-c2cc(O)c(C(CC(C)C)SC3CCCC3)c(=O)o2)cc1 (stereo not drawn)
180 to 181 °C	O=CC(=O)c1ccc(OCc2ccccc2)c(CO)c1

Continued, molecule first:

Compound	melting point
COC(=O)c1ccccc1OCC(O)CNCCNC(=O)Cc1ccccc1 (stereo not drawn)	114 to 115 °C
CCC1(CC)CC(=O)c2cc(C#N)ccc2O1	71 to 72 °C
COc1cccc(NC(=O)NC2N=C(c3ccccc3)c3ccccc3N(C)C2=O)c1 (stereo not drawn)	216 to 219 °C
CC1=C(C(=O)c2ccc3c(c2)CCN(C(N)=O)C3)C(C)(C)CCC1	86.4 to 87.6 °C
CNC(=O)[C@@H]1CCC[C@@H]1Nc1nc(Nc2cc3c(cc2OC)CCN(CC(=O)N(C)C)CC3)ncc1Cl (relative stereo)	240 °C
C(=C\c1nc(COc2ccc(CCCCCCn3cncn3)cc2)co1)/c1ccccc1	90 to 91 °C
Cc1c(F)c(F)cc2c1c(=O)c(C(=O)O)cn2C1CC1	294 to 298 °C
CCC(C(C)C)C(OC(C)=O)C(OC(C)=O)C(C)C1CCC2C3CC(=O)C4CC=CCC4(C)C3CCC12C (stereo not drawn)	116 to 118 °C
CS(=O)(=O)c1cc(C(=O)N=C(N)N)ccc1C(F)(F)F	146 to 147 °C
CC(C(=O)c1ccc(Cl)c(Cl)c1)C(O)C(=O)O (stereo not drawn)	103 to 104 °C
CCONC(O)(CC)C1C(=O)C=C(CC)OC1=O (stereo not drawn)	63 to 64 °C
Cc1cc(-n2cncn2)c2cccc(OCc3c(Cl)ccc(S(=O)(=O)N4CCC[C@H]4C(=O)NCC4CCN(C(=O)OC(C)(C)C)CC4)c3Cl)c2n1	94 °C
O=C(O)COc1c(-c2cccc(Cl)c2)cc(C(=O)NCCCCCCCCOCc2ccc(Cl)cc2)cc1-c1cccc(Cl)c1	128 to 131 °C
c1ccc(COc2ccc(-c3nc4cccc(OCc5ccccc5)c4[nH]3)cc2C23CC4CC(CC(C4)C2)C3)cc1	109 to 111 °C
CC(=O)Nc1cccc(-c2ccnc3c(C#N)cnn23)c1	252 to 254 °C
CNc1c(NCCNCc2ccc(CN3CCCCC3)o2)c(=O)c1=O	145 to 147 °C
Cc1nc(N2CCN(CC3CCCC3)C2=O)sc1C(=O)NCc1cccnc1	142 to 143 °C
CCCCCCCCCCCCCCOc1ccc(NC(=O)c2cccc(CBr)c2)cc1	140 to 142 °C
CC(=O)NC1CCCN(c2c(F)cc3c(=O)c(C(=O)O)cn(C4CC4)c3c2F)C1 (stereo not drawn)	280 to 282 °C
CN(C)C1(c2ccccc2)CCC(C(O)CN2Cc3ccccc3C2)CC1 (stereo not drawn)	130 to 135 °C
O=C1Nc2ccc(CN3C(=O)CSC3=O)c(F)c2C1=Cc1cc(CN2CCOCC2)c[nH]1	246 to 248 °C

Compound	melting point
O=C(O)CNC(=O)c1nc(Cl)c2cc(Cl)c(Cl)cc2c1O	265 °C
O=C(Nc1ccccc1)O[C@@H]1CN=C(c2ccc(OC(F)(F)F)cc2)O[C@H]1c1ccccc1 (racemic)	128 °C
CC(C)(Oc1ccc(CNc2ccc(Cl)cc2)cc1)C(=O)O	155 to 158 °C
CCN(CC)C(=O)c1ccc(I)cc1	68 to 70 °C
CCC1CCCCN1CCNc1ccnc2cc(Cl)ccc12 (racemic)	115 to 117 °C
O=[N+]([O-])c1cccc(/C=C/c2nc(C3CCCC3)cs2)c1	65 to 70 °C
NC(=O)c1ccccc1NC(=S)NC(=O)c1ccccc1	190 to 192 °C
COc1ccc(C=C(C)[N+](=O)[O-])c(OC)c1OC	57 to 58 °C
O=C(O)CCCC(CCCNS(=O)(=O)c1ccc(Cl)cc1)CCc1cccnc1 (stereo not drawn)	83 to 85 °C
CC(=O)NCCC(=O)NCCNC(=O)OCc1ccccc1	180 to 182 °C
N#Cc1nccc2cccc(-n3cccc3)c12	178 °C
Cn1nc(N)nc1NCCCOc1cccc(C2OCCO2)c1	117 to 118 °C
COc1ccc(OC(c2ccc(OC)cc2)C(Cl)(Cl)Cl)cc1 (stereo not drawn)	90 °C
CCCCCCCCCCCCN(Cc1cccnc1)S(C)(=O)=O	43 to 44 °C
CCCCCCCCC[C@@H](CC(N)=O)N(CCC)C(=O)[C@H](CCCC(=O)O)NC(=O)c1cn(Cc2ccccc2)c2ccccc12	155 to 160 °C
CCCCCc1ccc(-c2ncc(-c3ccc(O)cc3)cn2)cc1	152 to 153 °C
COC(OC)c1ccc2c(c1)C(C)(C)C(=O)CC2(C)C	91 to 92 °C
CCOC(=O)C(NC(=O)CCl)N(C(=O)CCl)c1cscn1 (stereo not drawn)	102 to 104 °C
Cc1cc(NC(=O)c2cnoc2C2CC2)ccc1Br	133 to 135 °C
COC(=O)C1CC2c3cccc4[nH]cc(c34)CC2N(C(=O)C2CC2)C1 (stereo not drawn)	276 to 278 °C
O=C(O)Cc1ccc(NC(=O)C(CCc2ccccc2)NS(=O)(=O)c2ccc(Cl)cc2)cc1 (racemic)	163 to 167 °C
